23 compounds from PubChem BioAssay AID434987 (Southern Research Specialized Biocontainment Screening …, 2010) can be followed below.

The assay deals with M. tuberculosis H37Rv growth inhibition with meropenem. The experiment in a line: dose response, H37Rv, with and without meropenem (AID 434987).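 Further: growth over 7 days at 37 °C before Alamar Blue read on day 9.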
The mark [1] stands for this setting: M. tuberculosis H37Rv growth inhibition, measured here: IC50 without meropenem.
Where [2] appears, read: M. tuberculosis H37Rv growth inhibition, measured here: IC90 without meropenem.
Setting [3] is: measured here: IC90 with meropenem.

The source made the active and inactive calls. How the calls were made is not given here. Where only a bound is given, the exact number is not on record here.

In the case of `O=C(Oc1oc(-c2ccco2)nc1C=Nc1ccc(Cl)cc1)c1ccco1`, the IC50 was 15 µM. The same compound came in with an IC50 under setting [1] of more than 100 µM. Under setting [2], this compound had an IC90 of more than 100 µM. Under setting [3], this compound had an IC90 of more than 100 µM.
Take `CCOCC(=O)Nc1ccc(F)c(F)c1`: the IC50 is 81.2 µM (inactive). The IC50 under setting [1] was found to be 94.5 µM. Under setting [2], this compound displayed an IC90 of more than 100 µM. This compound also registered an IC90 under setting [3] of more than 100 µM.
As to `CCC(C)C(NC(N)=O)C(=O)Nc1ccc(OCc2ccccc2)cc1` (configuration not stated), the IC50 was > 100 µM (inactive). Under setting [1], this compound came in with an IC50 of more than 100 µM. Also, the IC90 under setting [2] was more than 100 µM. This compound also returned an IC90 under setting [3] of more than 100 µM.
Consider `COC(=O)c1cnn(-c2ccccc2)c1/C=N/NC(=S)Nc1ccc(Cl)cc1`, for which the IC50 is 33.1 µM. Besides, the IC50 under setting [1] is more than 100 µM. Under setting [2], the IC90 was more than 100 µM. Further, the IC90 under setting [3] was more than 100 µM.
`CCOc1ccc2nc(NC(=O)c3cnccn3)sc2c1`: the IC50 is 4.07 µM. Under setting [1], this compound gave an IC50 of more than 100 µM. Also, the IC90 under setting [2] is more than 100 µM. This compound gave an IC90 under setting [3] of more than 100 µM.
For `CC(=O)Nc1ccc(S(=O)(=O)Nc2cccc3cccnc23)cc1`, the IC50 is 13.2 µM (inactive). Under setting [1], this compound came in with an IC50 of 21.5 µM. Under setting [2], this compound registered an IC90 of more than 100 µM. The compound also returned an IC90 under setting [3] of 43.3 µM.
The corresponding values for `CCOc1cc(CNCCN(C)C)c(Cl)cc1OCC(=O)NCCc1ccccc1` are > 100 µM (inactive), more than 100 µM, more than 100 µM and more than 100 µM.
The corresponding values for `CC(C(=O)Nc1nc2ccccc2[nH]1)N1C(=O)C2CC=CCC2C1=O` (configuration not stated) are > 100 µM (inactive), more than 100 µM, more than 100 µM and more than 100 µM.
Take `Cc1cc(C)c(N=Cc2c(O)n(-c3nccs3)c(=O)c3ccccc23)c(C)c1`: the IC50 is > 100 µM (inactive). In addition, the IC50 under setting [1] was more than 100 µM. This compound gave an IC90 under setting [2] of more than 100 µM. Under setting [3], this compound gave an IC90 of more than 100 µM.
For the compound `COc1cccc(CNC(=O)C(Cc2ccccc2)n2cccc2)c1` (configuration not stated), the IC50 is 50.7 µM (inactive). Under setting [1], this compound gave an IC50 of 67.4 µM. Also, the IC90 under setting [2] is more than 100 µM. In addition, the IC90 under setting [3] is more than 100 µM.
In the case of `CCc1ccc(NC(=S)Nc2ccc3cn[nH]c3c2)cc1`, the IC50 is 23.9 µM. In addition, the IC50 under setting [1] was more than 100 µM. Under setting [2], the IC90 is more than 100 µM. Under setting [3], the IC90 is more than 100 µM.
In the case of `c1ccc2nc(-c3nc4ccccc4o3)ccc2c1`, the IC50 is 43.9 µM (inactive). The IC50 under setting [1] was more than 100 µM. Also, the IC90 under setting [2] was more than 100 µM. The compound also showed an IC90 under setting [3] of more than 50 µM.
With `CCOC(=O)/C(=N\Nc1ccccc1)c1csc(Nc2ccc(C)cc2)n1`, the IC50 is > 100 µM (inactive). Under setting [1], this compound returned an IC50 of more than 100 µM. Besides, under setting [2], the IC90 is more than 100 µM. The compound further had an IC90 under setting [3] of more than 100 µM.
In the case of `CCc1ccc(NC(=S)Nc2ccc3[nH]c(=O)[nH]c3c2)cc1`, the IC50 was > 100 µM (inactive). Further, the IC50 under setting [1] is more than 100 µM. For the same compound, the IC90 under setting [2] is more than 100 µM. In addition, the concentration for an effect of 90% (IC90) under setting [3] was more than 100 µM.
In the case of `O=C(CCC(=O)Nc1ccccc1)NNC(=O)c1ccco1`, the IC50 is > 100 µM (inactive). Also, the IC50 under setting [1] is more than 100 µM. This compound also came in with an IC90 under setting [2] of more than 100 µM. This compound had an IC90 under setting [3] of more than 100 µM.
Take `C/C(=N\NC(=O)c1ccncc1)c1c(O)n(-c2ccccc2)c(=O)[nH]c1=O`: the IC50 was 2.81 µM (inactive). Under setting [1], this compound returned an IC50 of 5.74 µM. The same compound had an IC90 under setting [2] of more than 100 µM. This compound showed an IC90 under setting [3] of 3.94 µM.
Regarding `CC(=O)C1=C(C)NC(SCC(=O)c2ccccc2)=C(C#N)C1CC(C)C` (configuration not stated), the IC50 is 51.8 µM (inactive). In addition, the IC50 under setting [1] was found to be 88.5 µM. Moreover, the IC90 under setting [2] is more than 100 µM. Besides, the IC90 under setting [3] is more than 100 µM.
For `Cc1ccc(C2=N/C(=C\c3cccc(F)c3)C(=O)O2)cc1`, the 50% inhibitory concentration (IC50) was 1.49 µM. Also, the IC50 under setting [1] is 7.03 µM. The compound further yielded an IC90 under setting [2] of 79.6 µM. The same compound registered a concentration for an effect of 90% (IC90) under setting [3] of 4.02 µM.
Turning to `CCOC(=O)c1cc(C(=O)OCC)cc(-n2cc(O)c(C(=O)OCC)n2)c1`, the IC50 is > 100 µM (inactive). Moreover, the IC50 under setting [1] was more than 100 µM. The compound also came in with an IC90 under setting [2] of more than 100 µM. In addition, under setting [3], the IC90 was more than 100 µM.
`COc1cc(OC)c(OC)cc1/C=C1\CCC(C2CCCC2)C1=O` (configuration not stated): the IC50 was 55.9 µM (inactive). In addition, the IC50 under setting [1] came out at 77.5 µM. Further, the IC90 under setting [2] was more than 100 µM. This compound gave a 90% effect concentration (IC90) under setting [3] of more than 100 µM.
On to `Cn1c(O)c(/C=C2/C=CC=N2)c(=O)[nH]c1=O`, for which the IC50 was 18.3 µM. Also, under setting [1], the IC50 is more than 100 µM. The compound also displayed an IC90 under setting [2] of more than 100 µM. Also, under setting [3], the IC90 is more than 100 µM.
As for `CC(=O)c1ccc(N2CCN(c3ncc(C(F)(F)F)cc3Cl)CC2)cc1`, the IC50 is > 100 µM (inactive). The same compound displayed an IC50 under setting [1] of more than 100 µM. Moreover, the 90% effect concentration (IC90) under setting [2] was more than 100 µM. The same compound registered an IC90 under setting [3] of more than 100 µM.
For the compound `CC/C(=N\NC(=O)c1ccc(-c2ccccc2)cc1)C12CC3CC(CC(C3)C1)C2`, the IC50 was 40.7 µM (inactive). Under setting [1], this compound gave an IC50 of 41.1 µM. This compound gave an IC90 under setting [2] of 47.9 µM. The concentration for an effect of 90% (IC90) under setting [3] was 43.7 µM.
